Results as given in patent publication US20110053773A1, “METHODS OF IMPROVING NUTRITIONAL VALUE OF PLANTS” (UNIVERSITY OF TENNESSEE RESEARCH FOUNDATION, priority 2009, published 2011).

Experiments:
basil 'Genovese' [1] = assay: Visual injury of basil after insecticide, fungicide, PGRs, safeners (Example 4)
In short: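 Postemergence greenhouse applications of chlorpyrifos, chlorothalonil, mepiquat-chloride, paclobutrazol, napthalic anhydride or isoxadifen-ethyl. Injury rated visually for phytotoxicity, chlorosis and stunting on a 0–100% scale (0 = no response, 100 = plant death). Plants harvested ~4 weeks after treatment, pooled over replicates for nutrient content analysis.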

basil 'Genovese' [2] = assay: Content analysis of basil: protein, minerals (Example 4, Tables 10-11); assay type: in vivo; settings: 28 DA-A
In short: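 Plants were harvested about 4 weeks post-treatment and pooled across replicates to analyse protein, amino acids, fiber, fatty acids and minerals (Na, Ca, P, Mg, K, Fe, Mn, Zn, Cu). Treatments were postemergence insecticide, fungicide, PGRs and safeners. Visual injury scored 0–100% (phytotoxicity, chlorosis, stunting).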

kale 'Red Russian' = assay: Visual injury of kale after insecticide, fungicide, PGRs, safeners (Example 4)
Procedure: Greenhouse and laboratory studies were conducted to ascertain the tolerance and nutritional quality differences following postemergence applications of the insecticide chlorpyrifos, the fungicide chlorothalonil, the PGRs mepiquat-chloride and paclobutrazol, and the safeners napthalic anhydride and isoxadifen-ethyl on kale ‘Red Russian’ and basil ‘Genovese’. Visual injury was rated based on general phytotoxicity, chlorosis, and visual stunting and each measurement was based on a percent scale from 0 to 100 where 0 equals no visual response and 100 equals complete plant death. Kale and basil were both harvested approximately 4 weeks after treatments and plants were pooled over replicates for content analysis of crude protein, crude amino acid content, acid detergent fiber, neutral detergent fiber, total fatty acids, and/or key mineral content (including Na, Ca, P, Mg, K, Fe, Mn, Zn, and Cu). In addition, the amounts of key individual amino acids (aspartic acid, threonine, glutamic acid, proline, glycine, cysteine, valine, leucine, isoleucine, methionine, and lysine) and composite classifications of fatty acid (saturated fatty acids, monounsaturated fatty acids, polyunsaturated fatty acids) were also analyzed from these sub-samples for kale (Tables 10-14).

[3] = 7 DA-A, rates g ai/ha: chlropyrifos 3370, chlorothalonil 7900, paclobutrazol 9.7, mepiquat-chloride 37, Isoxadifen 16, Napthalic anhydride 527, + NIS 0.25 % v/v
[4] = 14 DA-A, rates g ai/ha: chlropyrifos 1120, chlorothalonil 2630, paclobutrazol 3.23, mepiquat-chloride 12.3, Isoxadifen 8, Napthalic anhydride 264, + NIS 0.25 % v/v
[5] = 14 DA-A, rates g ai/ha: chlropyrifos 3370, chlorothalonil 7900, paclobutrazol 9.7, mepiquat-chloride 37, Isoxadifen 16, Napthalic anhydride 527, + NIS 0.25 % v/v
[6] = 28 DA-A, rates g ai/ha: chlropyrifos 1120, chlorothalonil 2630, paclobutrazol 3.23, mepiquat-chloride 12.3, Isoxadifen 8, Napthalic anhydride 264, + NIS 0.25 % v/v
[7] = 28 DA-A, rates g ai/ha: chlropyrifos 3370, chlorothalonil 7900, paclobutrazol 9.7, mepiquat-chloride 37, Isoxadifen 16, Napthalic anhydride 527, + NIS 0.25 % v/v
[8] = rates g ai/ha: chlroprifos 3370, chlorothalonil 7900, paclobutrazol 9.7, mepiquat-chloride 37, Isoxadifen 16, Napthalic anhydride 527, + NIS 0.25 % v/v
[9] = rates g ai/ha: chlropyrifos 1120, chlorothalonil 2630, paclobutrazol 3.23, mepiquat-chloride 12.3, Isoxadifen 8, Napthalic anhydride 264, + NIS 0.25 % v/v
[10] = 7 DA-A, rates g ai/ha: chlropyrifos 1120, chlorothalonil 2630, paclobutrazol 3.23, mepiquat-chloride 12.3, + NIS 0.25 % v/v
[11] = 7 DA-A, rates g ai/ha: chlropyrifos 3370, chlorothalonil 7900, paclobutrazol 9.7, mepiquat-chloride 37, + NIS 0.25 % v/v
[12] = 14 DA-A, rates g ai/ha: chlropyrifos 1120, chlorothalonil 2630, paclobutrazol 3.23, mepiquat-chloride 12.3, + NIS 0.25 % v/v
[13] = 14 DA-A, rates g ai/ha: chlropyrifos 3370, chlorothalonil 7900, paclobutrazol 9.7, mepiquat-chloride 37, + NIS 0.25 % v/v
[14] = 28 DA-A, rates g ai/ha: chlropyrifos 1120, chlorothalonil 2630, paclobutrazol 3.23, mepiquat-chloride 12.3, + NIS 0.25 % v/v
[15] = 28 DA-A, rates g ai/ha: chlropyrifos 3370, chlorothalonil 7900, paclobutrazol 9.7, mepiquat-chloride 37, + NIS 0.25 % v/v

## C[N+]1(C)CCCCC1 [mepiquat-chloride]
Basil 'Genovese' [1]; [3]
  Phytotoxicity General: 2%
  Phytotoxicity Stunting: 5%
Basil 'Genovese' [1]; [4]
  Phytotoxicity Chlorosis: 7%
  Phytotoxicity General: 5%
  Phytotoxicity Stunting: 3%
Basil 'Genovese' [1]; [5]
  Phytotoxicity Chlorosis: 2%
  Phytotoxicity General: 5%
  Phytotoxicity Stunting: 0%
Basil 'Genovese' [1]; [6]
  Phytotoxicity Chlorosis: 2%
  Phytotoxicity General: 2%
  Phytotoxicity Stunting: 2%
Basil 'Genovese' [1]; [7]
  Phytotoxicity Chlorosis: 2%
  Phytotoxicity General: 0%
  Phytotoxicity Stunting: 0%
Basil 'Genovese' [2]; [8]
  ADF, Percent Increase Over the Untreated Check (on a % dry matter basis): −9 % check
  Calcium, Percent Increase Over the Untreated Check (on a % dry matter basis): 2 % check
  Copper, Percent Increase Over the Untreated Check (on a % dry matter basis): −8 % check
  Iron, Percent Increase Over the Untreated Check (on a % dry matter basis): 6 % check
  Magnesium, Percent Increase Over the Untreated Check (on a % dry matter basis): 16 % check
  Manganese, Percent Increase Over the Untreated Check (on a % dry matter basis): 61 % check
  NDF, Percent Increase Over the Untreated Check (on a % dry matter basis): −11 % check
  Phosphorous, Percent Increase Over the Untreated Check (on a % dry matter basis): 26 % check
  Potassium, Percent Increase Over the Untreated Check (on a % dry matter basis): −3 % check
  Protein, Percent Increase Over the Untreated Check (on a % dry matter basis): 7 % check
  Sodium, Percent Increase Over the Untreated Check (on a % dry matter basis): 8 % check
  Soluble protein, Percent Increase Over the Untreated Check (on a % dry matter basis): 27 % check
  Zinc, Percent Increase Over the Untreated Check (on a % dry matter basis): 53 % check
Basil 'Genovese' [2]; [9]
  ADF, Percent Increase Over the Untreated Check (on a % dry matter basis): 7 % check
  Calcium, Percent Increase Over the Untreated Check (on a % dry matter basis): 2 % check
  Copper, Percent Increase Over the Untreated Check (on a % dry matter basis): 0 % check
  Iron, Percent Increase Over the Untreated Check (on a % dry matter basis): 14 % check
  Magnesium, Percent Increase Over the Untreated Check (on a % dry matter basis): 0 % check
  Manganese, Percent Increase Over the Untreated Check (on a % dry matter basis): 61 % check
  NDF, Percent Increase Over the Untreated Check (on a % dry matter basis): −8 % check
  Phosphorous, Percent Increase Over the Untreated Check (on a % dry matter basis): 13 % check
  Potassium, Percent Increase Over the Untreated Check (on a % dry matter basis): −4 % check
  Protein, Percent Increase Over the Untreated Check (on a % dry matter basis): 13 % check
  Sodium, Percent Increase Over the Untreated Check (on a % dry matter basis): −8 % check
  Soluble protein, Percent Increase Over the Untreated Check (on a % dry matter basis): 89 % check
  Zinc, Percent Increase Over the Untreated Check (on a % dry matter basis): 34 % check
Kale 'Red Russian'; [10]
  Phytotoxicity Chlorosis: 0%
  Phytotoxicity General: 9%
  Phytotoxicity Stunting: 4%
Kale 'Red Russian'; [11]
  Phytotoxicity Chlorosis: 0%
  Phytotoxicity General: 10%
  Phytotoxicity Stunting: 1%
Kale 'Red Russian'; [12]
  Phytotoxicity Chlorosis: 15%
  Phytotoxicity General: 1%
  Phytotoxicity Stunting: 16%
Kale 'Red Russian'; [13]
  Phytotoxicity Chlorosis: 4%
  Phytotoxicity General: 0%
  Phytotoxicity Stunting: 3%
Kale 'Red Russian'; [14]
  Phytotoxicity Chlorosis: 6%
  Phytotoxicity General: 1%
  Phytotoxicity Stunting: 9%
Kale 'Red Russian'; [15]
  Phytotoxicity Chlorosis: 3%
  Phytotoxicity General: 3%
  Phytotoxicity Stunting: 10%
